Source: patent publication US10174016B2 (BAYER AKTIENGESELLSCHAFT, priority 2014, dated 2019)
pIC50: −log10 of the molar value. Where two headings read alike, the source gives them in different places.

Tests used:
human P2X3 receptor = human P2X3 receptor (Homo sapiens (Human), UniProt P56373); assay: Intracellular calcium measurement (FLIPR, Fluo-4) of antagonist activity at human P2X3 receptors; format: cell-based; conditions: read-out: hP2X3 IC50
Method in brief: (§1)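 Cells expressing human P2X3 or P2X2/3, loaded with Fluo-4, preincubated 30 min at 37° C. with compound (1% DMSO final), then challenged with α,β-Me-ATP at its EC80. Peak FLIPR fluorescence over 90 sec gave % response; IC50, maximal inhibition and Hill slope from triplicates.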

human P2X2/3 receptor = human P2X2/3 receptor (Homo sapiens (Human), UniProt P56373+Q9UBL9); assay: Intracellular calcium measurement (FLIPR, Fluo-4) of antagonist activity at human P2X2/3 receptors; format: cell-based; conditions: for pIC50: human P2X2/3, FLIPR calcium assay, agonist α,β-Me-ATP, read-out: hP2X2/3 IC50
Sequence of human P2X2/3 receptor (P56373 whole entry): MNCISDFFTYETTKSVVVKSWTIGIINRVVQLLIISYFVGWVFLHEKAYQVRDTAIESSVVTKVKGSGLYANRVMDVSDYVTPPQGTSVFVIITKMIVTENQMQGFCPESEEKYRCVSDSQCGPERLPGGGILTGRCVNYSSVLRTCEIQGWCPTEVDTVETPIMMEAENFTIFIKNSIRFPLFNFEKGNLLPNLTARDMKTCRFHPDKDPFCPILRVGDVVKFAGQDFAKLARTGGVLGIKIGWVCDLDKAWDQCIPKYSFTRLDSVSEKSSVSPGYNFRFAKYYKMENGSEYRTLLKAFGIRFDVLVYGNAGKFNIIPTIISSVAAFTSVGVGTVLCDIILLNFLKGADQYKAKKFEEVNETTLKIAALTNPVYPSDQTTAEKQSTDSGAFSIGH
Sequence of human P2X2/3 receptor (Q9UBL9 whole entry): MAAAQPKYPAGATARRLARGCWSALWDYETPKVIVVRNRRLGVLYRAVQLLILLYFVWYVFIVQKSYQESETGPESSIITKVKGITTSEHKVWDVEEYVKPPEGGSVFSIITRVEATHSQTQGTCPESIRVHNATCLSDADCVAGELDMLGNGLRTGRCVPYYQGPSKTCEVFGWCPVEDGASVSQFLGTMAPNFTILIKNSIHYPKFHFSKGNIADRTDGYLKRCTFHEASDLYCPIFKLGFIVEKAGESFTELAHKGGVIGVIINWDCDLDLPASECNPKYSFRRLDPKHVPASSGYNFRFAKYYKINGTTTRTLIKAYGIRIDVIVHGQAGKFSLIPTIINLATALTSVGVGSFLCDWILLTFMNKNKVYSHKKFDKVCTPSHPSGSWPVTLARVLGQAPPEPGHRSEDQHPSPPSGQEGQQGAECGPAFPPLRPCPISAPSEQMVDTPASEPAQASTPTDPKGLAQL
Method in brief: as §1

[1] = human P2X3, FLIPR calcium assay, agonist α,β-Me-ATP

Sequence of human P2X3 receptor (P56373 whole entry): as the sequence (P56373 whole entry) above

SMILES | pIC50 (human P2X3 receptor; [1]) | pIC50 (human P2X2/3 receptor) | pIC50 (human P2X3 receptor) | IC50 (human P2X2/3 receptor; hP2X2/3 IC50 (nM)) [nM]
Cc1cnc(-c2cc(OC3CC4(C3)CN(C(=O)OC(C)(C)C)C4)cc(C(=O)N[C@H](C)c3cnc(C(F)(F)F)nc3)c2)s1 [Example 146, tert-butyl 6-[3-(5-methyl-1,3-thiazol-2-yl)-5-({(1R)-1-[2-(trifluoromethyl)pyrimidin-5-yl]ethyl}carbamoyl)phenoxy]-2-azaspiro[3.3]heptane-2-carboxylate] | 7.35 | 6.80 |  | 
Cc1cnc(-c2cc(O[C@@H]3C[C@H]4CC[C@@H](C3)N4C)cc(C(=O)N[C@H](C)c3cnc(C(F)(F)F)nc3)c2)s1 [Example 217, 3-{[(3-exo)-8-methyl-8-azabicyclo[3.2.1]oct-3-yl]oxy}-5-(5-methyl-1,3-thiazol-2-yl)-N-{(1R)-1-[2-(trifluoromethyl)pyrimidin-5-yl]ethyl} benzamide] | 7.60 | 5.76 |  | 
Cc1ncc([C@@H](C)NC(=O)c2cc(O[C@H]3CCOC3)cc(-c3ncc(C)s3)c2)cn1 [Example 130, N-[(1R)-1-(2-Methylpyrimidin-5-yl)ethyl]-3-(5-methyl-1,3-thiazol-2-yl)-5-[(3S)-tetrahydrofuran-3-yloxy]benzamide] |  |  | 7.13 | 1350
CC#CCOc1cc(C(=O)N[C@H](C)c2nnc(C)s2)cc(-c2ncc(C)s2)c1 [Example 41, 3-(But-2-yn-1-yloxy)-N-[(1R)-1-(5-methyl-1,3,4-thiadiazol-2-yl)ethyl]-5-(5-methyl-1,3-thiazol-2-yl)benzamide] | 6.89 | 5.80 |  | 
Cc1ccc([C@@H](C)NC(=O)c2cc(Oc3nccs3)cc(-c3ncc(C)s3)c2)nn1 [Example 113, N-[(1R)-1-(6-Methylpyridazin-3-yl)ethyl]-3-(5-methyl-1,3-thiazol-2-yl)-5-(1,3-thiazol-2-yloxy)benzamide] | 7.37 | 6.41 |  | 
C#CCOc1cc(C(=O)N[C@H](C)c2ccc(C(F)(F)F)nn2)cc(-c2ncc(C)s2)c1 [Example 38, 3-(5-Methyl-1,3-thiazol-2-yl)-5-(prop-2-yn-1-yloxy)-N-[(1R)-1-[6-(trifluoromethyl)pyridazin-3-yl]ethyl]benzamide] | 7.26 | 5.94 |  | 
C#CCOc1cc(C(=O)NCc2cnc(C)cn2)cc(-c2ncc(C)s2)c1 [Example 35, N-[(5-Methylpyrazin-2-yl)methyl]-3-(5-methyl-1,3-thiazol-2-yl)-5-(prop-2-yn-1-yloxy)benzamide] | 6.34 | ≤ 5.00 |  | 
C[C@@H](NC(=O)c1cc(OC[C@@H]2CN(C)CCO2)cc(-c2ncc(Cl)s2)c1)c1cnc(C(F)(F)F)nc1 [Example 376, 3-(5-chloro-1,3-thiazol-2-yl)-5-{[(2S)-4-methylmorpholin-2-yl]methoxy}-N-{(1R)-1-[2-(trifluoromethyl)pyrimidin-5-yl]ethyl}benzamide] | 7.49 | 6.05 |  | 
COCCOc1cc(C(=O)N[C@H](C)c2cnc(C)nc2)cc(-c2ncc(C)s2)c1 [Example 136, 3-(2-Methoxyethoxy)-N-[(1R)-1-(2-methylpyrimidin-5-yl)ethyl]-5-(5-methyl-1,3-thiazol-2-yl)benzamide] | 6.71 | 5.56 |  | 
Cc1cnc(-c2cc(OC[C@H]3COCCO3)cc(C(=O)N[C@H](C)c3ccc(C(F)(F)F)nn3)c2)s1 [Example 179, 3-[(2R)-1,4-dioxan-2-ylmethoxy]-5-(5-methyl-1,3-thiazol-2-yl)-N-{(1R)-1-[6-(trifluoromethyl)pyridazin-3-yl]ethyl} benzamide] | 7.89 | 6.15 |  | 
Cc1cnc([C@@H](C)NC(=O)c2cc(OC3CCN(CC(F)(F)F)CC3)cc(-c3ncc(C)s3)c2)cn1 [Example 313, N-[(1R)-1-(5-methylpyrazin-2-yl)ethyl]-3-(5-methyl-1,3-thiazol-2-yl)-5-{[1-(2,2,2-trifluoroethyl)piperidin-4-yl]oxy}benzamide] | 7.96 | 6.70 |  | 
Cc1ccc(CNC(=O)c2cc(OC3CCN(CC(F)(F)F)CC3)cc(-c3ncc(C)s3)c2)nn1 [Example 314, N-[(6-methylpyridazin-3-yl)methyl]-3-(5-methyl-1,3-thiazol-2-yl)-5-{[1-(2,2,2-trifluoroethyl)piperidin-4-yl]oxy}benzamide] |  | 6.72 | 8.10 | 
Cc1cnc(-c2cc(OC[C@@H]3CCOC3)cc(C(=O)N[C@H](C)c3ccc(C(F)(F)F)nn3)c2)s1 [Example 79, 3-(5-Methyl-1,3-thiazol-2-yl)-5-[(3R)-tetrahydrofuran-3-ylmethoxy]-N-[(1R)-1-[6-(trifluoromethyl)pyridazin-3-yl]ethyl]benzamide] | 8.05 | 6.38 |  | 
Cc1cnc(-c2cc(OC[C@@H]3CCCO3)cc(C(=O)N[C@H](C)c3cnc(C(F)(F)F)nc3)c2)s1 [Example 58, 3-(5-Methyl-1,3-thiazol-2-yl)-5-[(2S)-tetrahydrofuran-2-ylmethoxy]-N-{(1R)-1-[2-(trifluoromethyl)pyrimidin-5-yl]ethyl}benzamide] | 8.40 | 6.34 |  | 

Continued, in another order:

pIC50 (human P2X3 receptor; [1]) | pIC50 (human P2X2/3 receptor) | SMILES | pIC50 (human P2X3 receptor) | IC50 (human P2X2/3 receptor; hP2X2/3 IC50 (nM)) [nM]
8.30 | 7.42 | CCc1cnc(-c2cc(O[C@H]3CCOC3)cc(C(=O)N[C@H](C)c3cnc(C(F)(F)F)nc3)c2)s1 [Example 251, 3-(5-ethyl-1,3-thiazol-2-yl)-5-[(3S)-tetrahydrofuran-3-yloxy]-N-{(1R)-1-[2-(trifluoromethyl)pyrimidin-5-yl]ethyl}benzamide] |  | 
7.54 | 6.22 | Cc1cnc(-c2cc(Oc3nnc(C)s3)cc(C(=O)N[C@H](C)c3ccc(C(F)(F)F)nc3)c2)s1 [Example 176, 3-[(5-methyl-1,3,4-thiadiazol-2-yl)oxy]-5-(5-methyl-1,3-thiazol-2-yl)-N-{(1R)-1-[6-(trifluoromethyl)pyridin-3-yl]ethyl}benzamide] |  | 
8.40 | 7.42 | Cc1cnc(-c2cc(OCC3CC3)cc(C(=O)NC(C)c3ncc(Cl)cc3F)c2)s1 (racemic) [Example 6, N-[1-(5-Chloro-3-fluoropyridin-2-yl)ethyl]-3-(cyclopropylmethoxy)-5-(5-methyl-1,3-thiazol-2-yl)benzamide] |  | 
7.16 | 5.76 | Cc1cnc(-c2cc(OC[C@H]3CN(C)C(=O)CO3)cc(C(=O)N[C@H](C)c3cnc(C(F)(F)F)nc3)c2)s1 [Example 399, 3-{[(2R)-4-methyl-5-oxomorpholin-2-yl]methoxy}-5-(5-methyl-1,3-thiazol-2-yl)-N-{(1R)-1-[2-(trifluoromethyl)pyrimidin-5-yl]ethyl}benzamide] |  | 
8.00 | 6.41 | Cc1cnc(-c2cc(OC3COC3)cc(C(=O)N[C@H](C)c3ccc(Cl)cn3)c2)s1 [Example 46, N-[(1R)-1-(5-Chloropyridin-2-yl)ethyl]-3-(5-methyl-1,3-thiazol-2-yl)-5-(oxetan-3-yloxy)benzamide] |  | 
7.72 | 5.92 | Cc1cnc(-c2cc(OC[C@H]3CN(C)CCO3)cc(C(=O)NCc3cnc(C(F)(F)F)nc3)c2)s1 [Example 372, 3-{[(2R)-4-methylmorpholin-2-yl]methoxy}-5-(5-methyl-1,3-thiazol-2-yl)-N-{[2-(trifluoromethyl)pyrimidin-5-yl]methyl}benzamide] |  | 
7.32 | 6.92 | Cc1ccc([C@@H](C)NC(=O)c2cc(O[C@H]3CCOC3)cc(-c3ncc(C)s3)c2)nc1 [Example 28, N-[(1R)-1-(5-Methylpyridin-2-yl)ethyl]-3-(5-methyl-1,3-thiazol-2-yl)-5-[(3S)-tetrahydrofuran-3-yloxy]benzamide] |  | 
7.34 | 6.24 | Cc1cnc(-c2cc(OC3COC3)cc(C(=O)NC(C)c3nnc(C(F)(F)F)s3)c2)s1 (single isomer, unassigned) [Example 194, 3-(5-Methyl-1,3-thiazol-2-yl)-5-(oxetan-3-yloxy)-N-{1-[5-(trifluoromethyl)-1,3,4-thiadiazol-2-yl]ethyl}benzamide] |  | 
8.22 | 6.65 | Cc1cnc(-c2cc(O[C@H]3CCN(C)C3)cc(C(=O)N[C@H](C)c3cnc(C(F)(F)F)nc3)c2)s1 [Example 142, 3-{[(3S)-1-Methylpyrrolidin-3-yl]oxy}-5-(5-methyl-1,3-thiazol-2-yl)-N-{(1R)-1-[2-(trifluoromethyl)pyrimidin-5-yl]ethyl}benzamide] |  | 
7.36 | 6.27 | Cc1cnc(-c2cc(OCC34CC(CO3)N(C(=O)OC(C)(C)C)C4)cc(C(=O)N[C@H](C)c3cnc(C(F)(F)F)nc3)c2)s1 (stereo partly drawn) [Example 404, tert-butyl 1-{[3-(5-methyl-1,3-thiazol-2-yl)-5-({(1R)-1-[2-(trifluoromethyl)pyrimidin-5-yl]ethyl}carbamoyl)phenoxy]methyl}-2-oxa-5-azabicyclo[2.2.1]heptane-5-carboxylate] |  | 
8.40 | 7.34 | Cc1cnc(-c2cc(OC3CCN(C)CC3F)cc(C(=O)N[C@H](C)c3cnc(C(F)(F)F)nc3)c2)s1 (stereo partly drawn) [Example 212, 3-[(3-fluoro-1-methylpiperidin-4-yl)oxy]-5-(5-methyl-1,3-thiazol-2-yl)-N-{(1R)-1-[2-(trifluoromethyl)pyrimidin-5-yl]ethyl} benzamide] |  | 
6.68 | 5.19 | COC(C)(C)COc1cc(C(=O)N[C@H](C)c2cnc(C(F)(F)F)nc2)cc(-c2ncc(Cl)s2)c1 [Example 116, 3-(5-Chloro-1,3-thiazol-2-yl)-5-(2-methoxy-2-methylpropoxy)-N-{(1R)-1-[2-(trifluoromethyl)pyrimidin-5-yl]ethyl}benzamide] |  | 
8.52 | 7.57 | CCc1cnc(-c2cc(OCC3CCOCC3)cc(C(=O)N[C@H](C)c3cnc(C)nc3)c2)s1 [Example 125, 3-(5-Ethyl-1,3-thiazol-2-yl)-N-[(1R)-1-(2-methylpyrimidin-5-yl)ethyl]-5-(tetrahydro-2H-pyran-4-ylmethoxy)benzamide] |  | 
